# Columns and labels:
# [1] = test system: venous ammonia; conditions: study HPN-100-006 (Diaz 2013); cited from earlier work
# [2] = test system: blood ammonia; test: Total ammonia exposure (TNAUC of monthly ammonia) during 12-month GPB treatment; type: in vivo, human; parameters: TNAUC ammonia, mean: unit not given beside the values; conditions: for TNAUC ammonia, mean: patients with HAC, N=19; for TNAUC ammonia, mean (SD): patients with no HAC, N=81
# Procedure: (§1) During the 12 month studies, blood samples for ammonia and glutamine analyses were collected monthly and information on HACs was recorded. […] Ammonia and glutamine concentrations were measured by an accredited hospital laboratory at each study site and ammonia values were normalized to a standard range of 9 to 35 μmol/L.
# The relationship between total ammonia exposure over time and the risk of HAC occurrence was explored by calculating time normalized area under the curve (TNAUC12months) for ammonia for patients with and without an HAC during the 12-month treatment with GPB (Table 13). The AUC for ammonia, measured monthly, was calculated for each patient using the trapezoid rule over the course of the 12 month study. To normalize the AUC, TNAUCxmonth, AUC was divided by the final study month of an ammonia assessment.
# [3] = test system: glutamine; test: Glutamine levels and exposure during 12-month GPB treatment; type: in vivo, human
# Procedure: as §1
# The relationship between glutamine levels and ammonia categories was also analyzed. […] Glutamine levels were analyzed over the 12 month study period in patients treated for 12 months with GPB. Monthly glutamine levels were generally higher in patients in the higher baseline ammonia ULN groups and, by three months of treatment, had decreased in the patients with the highest baseline glutamine at baseline (FIG. 14A).
# [4] = test system: UCD patients; test: Occurrence of hyperammonemic crises (HAC): 12 months pre-enrollment on NaPBA versus 12-month GPB treatment (studies HPN-100-005, -007, -012); type: in vivo, human
# Excerpt: Data from four short-term switchover (SO) studies and three 12-month safety extension (SE) studies in adult and pediatric UCD patients were included in the analyses; all have been previously described. […] Most patients completing these protocols plus additional patients (a total of 100 of whom 49 were pediatric) were enrolled into safety extension studies and received GPB for 12 months (Diaz 2013), (Mokhatarani 2013), (Berry 2014).
# All protocols and informed consents were reviewed and approved by the Investigational Review Board of each participating institution prior to initiation. […] In all studies, patients received GPB three times daily (or more frequently in small children to match their prior NaPBA schedule) at a daily dose equivalent to their previously prescribed NaPBA dose. […] Fasting ammonia and glutamine levels were analyzed as a predictor of HACs during long-term treatment.
# as §1
# Data for 100 UCD subjects from three clinical trials (HPN-100-005, HPN-100-007, and HPN-100-012) were analyzed to evaluate the correlation between fasting ammonia levels and HAC (Table 1). Patients were treated for 12 months with GPB during the study. There was an almost equal split in the number of subjects who were adults (51%) and children (49%), defined as age<18 years at the time of enrollment. In this population, 30 patients had experienced a total of 54 HACs in the 12 months prior to the study and 19 patients experienced a total of 27 HACs during the study (Table 1). Baseline ammonia was defined as the subject's fasting ammonia level taken either at month zero or at the screening visit depending on which study the subject was enrolled in and whether the subject was enrolled in previous studies.
# [5] = test system: UCD patients; test: Duration of HAC during the 12-month GPB studies; type: in vivo, human
# Procedure: The relationship between ammonia exposure and duration of HAC was analyzed. Ammonia exposure was characterized three different ways: peak ammonia during crisis, total ammonia during crisis and ammonia at time of admission. The majority of the HACs typically lasted a day, and a steep drop off in the distribution was seen after 2 days. (Note: two subjects were excluded with 20 days of duration of HAC in this analyses).
# [6] = all patients N=100, pre-study (NaPBA) or during study (GPB)
# [7] = study 005, N=17, pre-study (NaPBA) or during study (GPB)
# [8] = study 007, N=60, pre-study (NaPBA) or during study (GPB)
# [9] = study 012, N=23, pre-study (NaPBA) or during study (GPB)
# [10] = subjects ages 6 years or higher, total N=77, pre-study (NaPBA) or study (GPB)
smiles,measurement,setting,value
"O=C(CCCc1ccccc1)OCC(COC(=O)CCCc1ccccc1)OC(=O)CCCc1ccccc1 [GPB, glycerol phenylbutyrate]",Ammonia control of GPB versus NaPBA as assessed by venous ammonia,[1],non-inferiority
same,"TNAUC ammonia, mean",[2]; Month 0-3,33.3
same,"TNAUC ammonia, mean (SD)",[2]; Month 0-3,23.5 (13.62)
same,"TNAUC ammonia, mean",[2]; Month 0-6,33.0
same,"TNAUC ammonia, mean (SD)",[2]; Month 0-6,24.0 (13.85)
same,"TNAUC ammonia, mean",[2]; Month 0-9,33.4
same,"TNAUC ammonia, mean (SD)",[2]; Month 0-9,23.7 (12.56)
same,"TNAUC ammonia, mean",[2]; Month 0-12,35.0
same,"TNAUC ammonia, mean (SD)",[2]; Month 0-12,23.6 (11.94)
same,Change of glutamine levels during GPB treatment,"[3]; patients with the highest baseline glutamine, by three months of treatment",decreased
same,"Total glutamine exposure, TNAUC12month",[3]; subjects with an HAC during the study,720.9 μmol/L*m
same,"Total glutamine exposure, TNAUC12month",[3]; subjects without an HAC during the study,699.4 μmol/L*m
same,Lower HAC incidence rate during study (GPB) than pre-enrollment,[4]; 0.288 versus […],roughly 50%
same,Proportion of patients who experienced an HAC,"[4]; Group 1 study sites (33 patients, >50% with baseline ammonia <0.5 ULN)",12%
same,Proportion of patients who experienced an HAC,[4]; Group 2 study sites (29 patients),21%
same,Proportion of patients who experienced an HAC,[4]; Group 3 study sites (38 patients),24%
same,# HAC,[4]; Month 0-3 of GPB treatment,5
same,% of Total HAC,[4]; Month 0-3 of GPB treatment,(18.5%)
same,HAC Incidence Rate/month,[4]; Month 0-3 of GPB treatment,0.0170
same,# HAC,[4]; Month 0-6 of GPB treatment,13
same,% of Total HAC,[4]; Month 0-6 of GPB treatment,(48.1%)
same,HAC Incidence Rate/month,[4]; Month 0-6 of GPB treatment,0.0224
same,# HAC,[4]; Month 0-9 of GPB treatment,20
same,% of Total HAC,[4]; Month 0-9 of GPB treatment,(74.1%)
same,HAC Incidence Rate/month,[4]; Month 0-9 of GPB treatment,0.0234
same,# HAC,[4]; Month 0-12 of GPB treatment,27
same,% of Total HAC,[4]; Month 0-12 of GPB treatment,(100%)
same,HAC Incidence Rate/month,[4]; Month 0-12 of GPB treatment,0.0240
same,Proportion of patients who experienced an HAC during the study,[4]; OTC deficiency (n=69),18.8%
same,12-month incidence of HAC,[4]; adult (≧18 years),0.371
same,Proportion of patients who experienced an HAC,[4]; adult (≧18 years),13.7%
same,Proportion of patients with no HAC,"[4]; adult ≧18 years, during study",86.3%
same,"Subjects who had not experienced an HAC (Kaplan-Meier, HAC-free survival)",[4]; after about one year of follow-up during treatment with GPB,80%
same,Proportion of patients who experienced an HAC,"[4]; age 6-11 years, during study",23.5%
same,Proportion of patients with no HAC,"[4]; age 6-11 years, during study",76.5%
same,Proportion of patients who experienced an HAC,"[4]; age 12-17 years, during study",11.1%
same,Proportion of patients with no HAC,"[4]; age 12-17 years, during study",88.9%
same,Proportion of patients who experienced an HAC,"[4]; age <6 years, during study",30.4%
same,Proportion of patients with no HAC,"[4]; age <6 years, during study",69.6%
same,# of HA events (total no. of HAC),"[4]; all patients N=100, 12 months pre-study (NaPBA) or during study (GPB)",27
same,N with ≧1 HA events (number of patients with HAC),[4]; [6],19
same,Proportion of patients who experienced an HAC,[4]; [6],19.0%
same,Proportion of patients with no HAC,"[4]; all patients, during study",81.0%
same,Proportion of patients with no HAC,"[4]; baseline ammonia 0-<0.5 ULN, during study",89.7%
same,Proportion of patients with no HAC,"[4]; baseline ammonia 0.5-<1.0 ULN, during study",85.3%
same,Proportion of patients with no HAC,"[4]; baseline ammonia ≧1 ULN, during study",63.0%
same,12-month incidence of HAC,[4]; female,0.314
same,Proportion of patients who experienced an HAC,[4]; female,16.4%
same,Proportion of patients with no HAC,"[4]; female, during study",83.6%
same,12-month incidence of HAC,[4]; male,0.275
same,Proportion of patients who experienced an HAC,[4]; male,24.2%
same,Proportion of patients with no HAC,"[4]; male, during study",75.8%
same,Proportion of patients who experienced an HAC during the study,[4]; non-OTC deficiencies,19.4%
same,12-month incidence of HAC,[4]; non-white,0.248
same,Proportion of patients who experienced an HAC,[4]; non-white,21.1%
same,Proportion of patients with no HAC,"[4]; non-white, during study",78.9%
same,12-month incidence of HAC,[4]; pediatric (<18 years),0.209
same,Proportion of patients who experienced an HAC,[4]; pediatric (<18 years),24.5%
same,Proportion of patients with no HAC,"[4]; pediatric <18 years, during study",75.5%
same,# of HA events,[4]; [7],3
same,N with ≧1 HA events,[4]; [7],3
same,# of HA events,[4]; [8],12
same,N with ≧1 HA events,[4]; [8],9
same,# of HA events,[4]; [9],12
same,N with ≧1 HA events,[4]; [9],7
same,# of HACs,[4]; [10],15
same,Subjects with 1 or more HACs,[4]; [10],12
same,12-month incidence of HAC,[4]; white,0.296
same,Proportion of patients who experienced an HAC,[4]; white,18.5%
same,Proportion of patients with no HAC,"[4]; white, during study",81.5%
same,Duration of HAC that lasted less than 2 days,[5]; overall,about 64%
same,Duration of HA crisis 1-1.99 days,[5]; study 005,0.0%
same,Duration of HA crisis 2-2.99 days,[5]; study 005,50.0%
same,Duration of HA crisis <1 days,[5]; study 005,50.0%
same,Duration of HA crisis >3 days,[5]; study 005,0.0%
same,"Duration of HA crisis, median",[5]; study 005,1.27 days
same,"Duration of HA crisis, mean","[5]; study 005, N=2",1.27 days
same,Duration of HA crisis 1-1.99 days,[5]; study 007,16.7%
same,Duration of HA crisis 2-2.99 days,[5]; study 007,33.3%
same,Duration of HA crisis <1 days,[5]; study 007,41.7%
same,Duration of HA crisis >3 days,[5]; study 007,8.3%
same,"Duration of HA crisis, median",[5]; study 007,1.36 days
same,"Duration of HA crisis, mean","[5]; study 007, N=12",1.95 days
same,Duration of HA crisis 1-1.99 days,[5]; study 012,18.2%
same,Duration of HA crisis 2-2.99 days,[5]; study 012,18.2%
same,Duration of HA crisis <1 days,[5]; study 012,54.6%
same,Duration of HA crisis >3 days,[5]; study 012,9.1%
same,"Duration of HA crisis, median",[5]; study 012,0.92 days
same,"Duration of HA crisis, mean","[5]; study 012, N=11",1.53 days
same,Duration of HA crisis 1-1.99 days,"[5]; total, N=25",16.0%
same,Duration of HA crisis 2-2.99 days,"[5]; total, N=25",28.0%
same,Duration of HA crisis >3 days,"[5]; total, N=25",8.0%
same,"Duration of HA crisis, mean","[5]; total, N=25",1.71 days
same,"Duration of HA crisis, median","[5]; total, N=25",1.00 days

# Source: patent publication US20170087113A1, “METHODS FOR TREATING UREA CYCLE DISORDERS TO PREVENT HYPERAMMONEMIC CRISES BY CONTROLLING BLOOD AMMONIA LEVELS” (HORIZON THERAPEUTICS, LLC, priority 2014, published 2017)
